# Assay results taken from patent US11517603B2, “Bone remodeling accelerator” (HOKURIKU UNIVERSITY, priority 2017, dated 2022).
# Tests used:
# [1] = system: osteoclast differentiation of mouse bone marrow cells; assay: Differentiation of osteoclast: TRAP-positive osteoclasts in mouse bone marrow cell culture; type: cell-based; conditions: FIG. 2
# Experimental: Mouse bone marrow cells were seeded in each well of a microplate containing 0.5 mL α-MEM (manufactured by MP Biomedicals INC.) at 3.5×10^6 cells/well, and cultured at 37° C., carbon dioxide concentration=5(v/v)%. […] On days 1 and 4 of culture, a differentiation induction reagent (calcitriol) was added to a final concentration of 10 nM. At 6 days from the culture, the cells were stained with tartaric acid resistance acidic phosphatase (TRAP), observed with a microscope (inverted culture microscope “CK40”, manufactured by Olympus Corporation, magnification=40×), and the cells stained with TRAP, i.e., differentiated osteoclasts, were detected.
# [2] = system: osteoblast differentiation of mouse bone marrow cells; assay: Differentiation of osteoblast: ALP-positive osteoblast nodules in mouse bone marrow cell culture; type: cell-based; conditions: final concentration of 5 μM and 10 μM; p<0.05 or p<0.01; FIG. 1
# Experimental: Mouse bone marrow cells were seeded in each well of a microplate containing 0.5 mL Eagle minimum essential medium a modified type (α-MEM) (manufactured by MP Biomedicals INC.) at 2.5×10^6 cells/well, and cultured at 37° C., carbon dioxide concentration=5(v/v)%. […] On days 1 and 4 of culture, a differentiation induction reagent (0.2 mM ascorbic acid, 2.5 mM β-glycerophosphoric acid, 10 nM dexamethasone) was added to the following final concentrations. At 6 days from the culture, the cells were stained with alkaline phosphatase (ALP), observed with a microscope (inverted culture microscope “CK40”, manufactured by Olympus Corporation, magnification=40×), and the osteoblast nodule stained with ALP, i.e., cell nodule formed by differentiated osteoblast, was detected.
smiles,measurement,setting,value
"O=C1CC(c2ccc(O)c(O)c2)Oc2cc(OC3OC(CO)C(O)C(O)C3O)ccc21 [F2, 3′,4′,7-trihydroxyflavanone 7-O-β-D-glucopyranoside]",final concentration at which a concentration-dependent differentiation accelerating action on osteoclast was exhibited,"[1]; TRAP-positive osteoclast number per well, 6 days of culture",≥ 2.5 µM
same,TRAP-positive osteoclast number versus control,[1]; final concentration of 5 μM and 10 μM,significant difference of p<0.05
same,number of ALP-positive osteoblast nodules versus control,[2],significant difference from the control
